Converted amounts (≈) assume the structure as drawn. “And” between values parts separate entries of the source, which are not always exact repeats. Equal values may be shown once. Where a name gives a salt, the structure may show the parent alone.
Experiments:
[1] = tested on: antibody specific to mitragynine; details: polyclonal antibody of U.S. application 14/184,422, based on 100% to mitragynine; cited from earlier work
[2] = tested on: antibody specific to mitragynine; assay: ELISA for mitragynine and 8-desmethylmitragynine (polyclonal antibody to mitragynine); assay type: binding; details: for % CR: based on 100% specificity to mitragynine; for IC50: standard concentration which produces 50% B/B0
Source text: In one embodiment, the antibodies and immunoassay methods and kits for mitragynine (kratom), are as described in U.S. patent application Ser. No. 14/184,422, filed Feb. 19, 2014 entitled “Immunoassay for Detecting Kratom, its Constituents and their Use” the entire contents of which are incorporated herein by reference. In particular, U.S. patent application Ser. No. 14/184,422 describes a polyclonal antibody which that binds specifically to an epitope of one or more of mitragynine, 8-desmethylmitragynine, 8-sulphonylmitragynine, and 8-glucuronidylmitragynine which was raised to an immunogen having the structure of:
[drawing 5] • wherein HRP is horseradish peroxidase.

[3] = over 24-72 hours, following oral administration of tramadol; cited from earlier work
[4] = tested on: IDS Tramadol commercial immunoassay; details: cited from earlier work
[5] = tested on: Bio-Quant Tramadol commercial immunoassay; details: cited from earlier work
[6] = tested on: antibody raised against Immunogen-2; assay: Competitive ELISA with polyclonal antibody raised against Immunogen-2, Tracer-1 as detecting agent; assay type: binding, sheep; details: for % CR: relative to O-desmethyltramadol = 100
Procedure: Pre-immunization blood samples are collected from sheep. In order to generate polyclonal antisera, 2 mgs of the immunogen (structure 1) is prepared in PBS, mixed at a ratio of 50% immunogen in PBS to 50% Freund's Complete adjuvant (Sigma, Product Number F5881) and emulsified by repeatedly passing the mixture through a tip on the end of a 1 ml syringe, until it reaches the required semi-solid consistency. 1.1 ml of the emulsified mixture is injected intramuscularly into each host animal (sheep) as the primary immunisation dose. Further injections (boosts) are prepared (1 mg of immunogen is prepared in PBS and mixed at a ratio of 50% Immunogen in PBS/50% Freunds Incomplete adjuvant, Sigma, Product Number—F5506). Boost injections are delivered intramuscularly at monthly intervals, 1 ml per animal. Serum is sampled monthly by collection of whole blood from the jugular vein for evaluation of the antibody titre. The degree of antibody purification required depends on the intended application. For many purposes, there is no requirement for purification of the serum, however, in other cases, such as, where the antibody is to be immobilised on a solid support, purification steps (such as caprylic acid/ammonium sulphate precipitation) can be taken to remove undesired material and eliminate non-specific binding. In another embodiment, the purification is by immunoglobulin precipitation, antigen-specific affinity purification, column chromatography, such as, size-exclusion chromatography or ion exchange chromatography.
The polyclonal antibody raised against Immunogen-2 of Example 9 was removed from fridge or freezer and brought to room temperature. The antibody was diluted to 2.5 μg/ml in 10 mM Tris pH 8.5 and all appropriate wells are coated at 125 μl/well at 37° C. for 2 hours or at 4° C. overnight. The plate was washed 4 times over a period of 10 minutes with working strength tris-buffered saline and tween 20 (TBST) wash buffer and tapped dry. 50 μl of working strength TBST was pipetted into the appropriate wells. Dilutions of target analyte and potential crossreactant(s) were prepared in working strength TBST and pipetted (50 μl) into the appropriate wells beginning with the lowest concentration to the highest concentration. Hapten-HRP (Tracer-1) conjugate at the appropriate concentration was prepared in conjugate dilution buffer and 75 μl into pipetted into appropriate wells. The plate was tapped gently to mix contents, sealed and incubated at 25° C. for 1 hour. The plate was washed 6 times over a 10-15 minute period (3 quick washes followed by 3 additional washes over 12 minutes) and tapped dry thoroughly onto tissue paper. Trimethylbenzidine (TMB) solution (125 μl) was added to each well and tapped gently, and the plate was incubated at room temperature for 20 minutes in the dark. The reaction was stopped by addition of 125 μl of 0.2 M sulphuric acid to each well and the absorbance measured at 450 nm using an ELISA plate reader (Biotek Elx800).

[7] = tested on: Randox Tramadol commercial immunoassay; details: cited from earlier work
[8] = tested on: Immunanalysis Tramadol commercial immunoassay; details: cited from earlier work
[9] = tested on: Neogen Tramadol commercial immunoassay; details: cited from earlier work
[10] = antibodies from three sheep immunised with Immunogen-2

Compound | cross-reactivity [1] | B/Bo ([2]; 0.313 ng/ml analyte) | B/Bo ([2]; 0.625 ng/ml analyte) | B/Bo ([2]; 1.250 ng/ml analyte) | B/Bo ([2]; 2.500 ng/ml analyte) | B/Bo ([2]; 5.000 ng/ml analyte) | B/Bo ([2]; 10.000 ng/ml analyte) | B/Bo ([2]; 20.000 ng/ml analyte) | % CR [2] | IC50 [2] | Urinary excretory amount [3] | % Cross-reactivity [4] | % Cross-reactivity [5] | B/Bo ([6]; 0.156 ng/ml analyte) | B/Bo ([6]; 0.313 ng/ml analyte) | B/Bo ([6]; 0.625 ng/ml analyte) | B/Bo ([6]; 1.250 ng/ml analyte) | B/Bo ([6]; 2.500 ng/ml analyte) | B/Bo ([6]; 5.000 ng/ml analyte) | B/Bo ([6]; 10.000 ng/ml analyte) | also measured
CC[C@@H]1CN2CCc3c([nH]c4cccc(O)c34)[C@@H]2C[C@@H]1/C(=C\OC)C(=O)OC [8-Desmethylmitragynine, 8-desmethylmitragynine] | about 77.87% | 74 | 63 | 54 | 42 | 29 | 18 | 13 | 77.87% | 1.532 ng/mL (≈ 3.98 nM) | – | – | – | – | – | – | – | – | – | – | –
COc1cccc([C@]2(O)CCCC[C@H]2CN(C)C)c1 (racemic) [Tramadol, (±)-cis-2-[(dimethylamino)methyl]-1-(3-methoxyphenyl)cyclohexanol hydrochloride] | – | – | – | – | – | – | – | – | – | – | 12-32% | – | – | – | – | – | – | – | – | – | –
(±)-cis-2-[(dimethylamino)methyl]-1-(3 hydroxyphenyl)-cyclohexanol [O-Desmethyltramadol] | – | – | – | – | – | – | – | – | – | – | 5-15% | 40% | 100% | 53 | 37 | 24 | 16 | 10 | 6 | 4 | IC50 of antibodies to O-desmethyltramadol [6, 10]: 0.178 ng/mL and 0.181 ng/mL and 0.214 ng/mL; % CR [6]: 100%; % Cross-reactivity [7]: 57%; % Cross-reactivity [8]: 6%; % Cross-reactivity [9]: 27%
CC[C@@H]1CN2CCc3c([nH]c4cccc(OC)c34)[C@@H]2C[C@@H]1/C(=C\OC)C(=O)OC [Mitragynine, mitragynine] | 100% | 75 | 63 | 49 | 37 | 25 | 17 | 11 | 100.00% | 1.193 ng/mL (≈ 2.99 nM) | – | – | – | – | – | – | – | – | – | – | –
CNC[C@@H]1CCCC[C@@]1(O)c1cccc(OC)c1 (racemic) [N-Desmethyltramadol, (±)-cis-2-[(methylamino)methyl]-1-(3-methoxyphenyl)cyclohexanol] | – | – | – | – | – | – | – | – | – | – | 2-31% | <2% | <5% | 97 | 98 | 99 | 100 | 99 | 97 | 98 | cross-reactivity (in words) [6, 10]: no cross-reactivity; IC50 ([6]; antibody raised against Immunogen-2, Tracer-1): >>10 ng/ml; binding (in words) ([6]; at the concentrations tested (Table 2)): no appreciable binding; % CR [6]: <<1.78%; % Cross-reactivity [7]: 4%; % Cross-reactivity [8]: 44%; % Cross-reactivity [9]: 6%

— patent US10416175B2, “Opioid detection” (Randox Laboratories Limited, priority 2015, dated 2019)
